For the assay, the target named is T1, hSGLT1 (Homo sapiens, UniProt P13866).
T1 sequence (P13866 1-664): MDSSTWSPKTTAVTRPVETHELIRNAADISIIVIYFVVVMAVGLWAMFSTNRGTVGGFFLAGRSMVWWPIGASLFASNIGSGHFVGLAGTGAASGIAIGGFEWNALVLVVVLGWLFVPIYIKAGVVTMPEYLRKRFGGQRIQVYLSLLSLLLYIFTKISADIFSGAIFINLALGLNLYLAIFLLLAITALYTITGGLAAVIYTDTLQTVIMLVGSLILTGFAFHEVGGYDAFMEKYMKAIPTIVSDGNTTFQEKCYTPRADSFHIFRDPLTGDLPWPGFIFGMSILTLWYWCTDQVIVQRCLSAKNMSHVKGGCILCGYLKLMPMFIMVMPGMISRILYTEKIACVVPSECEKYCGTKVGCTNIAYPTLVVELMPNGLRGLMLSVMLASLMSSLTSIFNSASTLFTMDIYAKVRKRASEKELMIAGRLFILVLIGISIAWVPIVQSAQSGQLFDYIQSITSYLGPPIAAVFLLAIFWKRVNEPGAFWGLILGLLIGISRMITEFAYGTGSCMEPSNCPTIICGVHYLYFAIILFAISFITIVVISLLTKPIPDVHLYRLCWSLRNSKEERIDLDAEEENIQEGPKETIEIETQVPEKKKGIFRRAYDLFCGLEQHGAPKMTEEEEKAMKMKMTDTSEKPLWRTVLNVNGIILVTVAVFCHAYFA
Put plainly: 1-NBDG uptake inhibition in COS-7 cells expressing hSGLT1, single dose […]. The format is cell-based. Conditions: COS-7, read-out: % Uptake via / hSGLT1.

Molecules are shown by their SMILES.

In the case of `O=C(/C=C/c1ccc(O)cc1)OC[C@H]1O[C@@H](Oc2c(-c3ccc(O)cc3)oc3cc(O)cc(O)c3c2=O)[C@H](O)[C@@H](O)[C@@H]1O` [compound 15, Tiliroside], the activity at 50 µM stood at 33.1 ± 0.85%.

(Values after PMC9261792 (Journal of Food and Drug Analysis, 2021).)
